Experimental data from PubChem BioAssay AID2060611 (Molecular Pharmacology Branch, DTP, NCI, 2025).

System: 628569-122-R-J1-PDC complex spheroid viability
Experiment: Anticancer human tumor 628569-122-R-J1-PDC patient-derived head and neck squamous carcinoma cell line growth inhibition [CLK]
Conditions: for IC50: curve of first compound; for viability, T/C: stronger effect = lower value
From the text: A high-throughput screen of multi-cell type tumor spheroids was designed to identify active combinations of […] and targeted small molecules. Complex spheroids include a stromal component modeled by human endothelial cells (HUVEC) and fibroblasts modeled by human mesenchymal stem cells (MSCs). The concentration ranges selected for each drug and investigational agent were based upon clinically achievable concentrations if the clinical Cmax of the agent was known.
Compounds. The drugs and investigational agents: cirtuvivint (SM08502; NSC835563), CC-671 (NSC850746), vemurafenib (NSC761431), tapotoclax (NSC804041), sotorasib (NSC818433), adagrasib (NSC831453), MRTX-1133 (NSC836407), BAY2416964 (NSC825713), copanlisib (NSC816437), inavolisib (NSC800729), abemaciclib (NSC768073), osimertinib (NSC779217), entinostat (NSC756642), eltanexor (KPT-8602, NSC794443), venetoclax (NSC766270), ceralasertib (NSC777638), bortezomib (NSC756655), olaparib (NSC753686), talazoparib (NSC767125), alisertib (NSC759677), peposertib (NSC802822), gemcitabine (NSC613327), 5-fluorouracil (NSC19893), SN-38 (NSC673596), oxaliplatin (NSC266046), paclitaxel (NSC125973), and doxorubicin (NSC123127), were obtained from the National Cancer Institute (NCI) Developmental Therapeutics Program Chemical Repository. The FDA-approved anticancer drug set is available from the Developmental Therapeutics Program at https://dtp.cancer.gov/organization/dscb/obtaining/available plates.htm. […] The stock solutions were prepared in dimethyl sulfoxide (DMSO, Sigma-Aldrich, St. Louis, MO, cat. D2650), except for the platinum complexes which were prepared in saline (Quality Biological, Gaithersburg, MD, cat. 114-055-101), at 800-fold the tested concentration and stored at -70 degrees C prior to their use. All drugs and investigational agents were tested over a range starting from a high concentration at or near the clinical Cmax and decreasing in half-log increments. If the clinical Cmax for an agent had not been determined, the highest concentration tested was 10 microM.
Cell Culture. All cells were maintained in an incubator at 37 degrees C and 5% CO2 with 95% humidity. The PDC lines were cultured according to standard operating procedures established by the NCI PDMR. Briefly, all PDCs were thawed and cultured in Matrigel-coated flasks prepared with a working solution of 1X Ham's F-12 nutrient mix, without supplementation (Invitrogen, Waltham, MA, cat. 11765054), 100 U/mL penicillin-streptomycin (Invitrogen, cat. 15140122), and 2.5% Matrigel (Corning Inc., Corning, NY, cat. 354248) for the first three passages. The 947758-054-R-J2-PDC line was cultured in 6B/Colon 1A media, which includes advanced DMEM/F-12 (Thermo Fisher Scientific, cat. 12634028), 10 mM HEPES (Thermo Fisher Scientific, cat. 15630080), 1X GlutaMAX supplement (Thermo Fisher Scientific, cat. 35050061), 0.1 mg/mL primocin (InvivoGen, cat. ant-pm-2), 10% defined fetal bovine serum, heat inactivated (HyClone Laboratories Inc., cat. SH30070.03HI), 1.25 mM N-Acetyl-L-cysteine (Sigma-Aldrich, cat. A9165), 10 mM nicotinamide (Sigma-Aldrich, cat. N0636), 1X B-27 supplement (Thermo Fisher Scientific, cat. 17504044), 1X N-2 supplement (Thermo Fisher Scientific, cat. 17502048), and 10 microM Y-27632 dihydrochloride (Tocris Bioscience, cat. 1254). The 876862-298-R-J1-PDC was cultured in 6E media, which includes all 6B/Colon 1A media components plus 50% L-WRN conditioned media (ATCC, cat. CRL-3276), 50 ng/mL recombinant human EGF recombinant protein (hEGF; Thermo Fisher Scientific, cat. PHG0311), 10 ng/mL recombinant human fibroblast growth factor 10 (hGFG-10; PeproTech, cat. 100-26), 1 ng/mL recombinant human fibroblast growth factor 2 (hFGF-2; PeproTech, cat. 100-18B), and 1 µM prostaglandin E2 (PGE2; Tocris, cat. 2296). The 227483-062-R1-J1-PDC line was cultured in Panc media, containing all 6E components except hFGF-2, with the addition of 500 nM SB-431542 (Selleckchem, cat. S1067) and 10 nM gastrin (Tocris, cat. 3006). […]

[1] = second compound 0.0316 µM, first compound 0.0316 µM
[2] = second compound 0.0316 µM, first compound 0.1 µM
[3] = second compound 0.0316 µM, first compound 0.316 µM
[4] = second compound 0.0316 µM, first compound 1 µM
[5] = second compound 0.0316 µM, first compound 3.16 µM
[6] = second compound 0.0316 µM, first compound 10 µM
[7] = second compound 0.1 µM, first compound 0.0316 µM
[8] = second compound 0.1 µM, first compound 0.1 µM
[9] = second compound 0.1 µM, first compound 0.316 µM
[10] = second compound 0.1 µM, first compound 1 µM
[11] = second compound 0.1 µM, first compound 3.16 µM
[12] = second compound 0.1 µM, first compound 10 µM
[13] = second compound 0.316 µM, first compound 0.0316 µM
[14] = second compound 0.316 µM, first compound 0.1 µM
[15] = second compound 0.316 µM, first compound 0.316 µM
[16] = second compound 0.316 µM, first compound 1 µM
[17] = second compound 0.316 µM, first compound 3.16 µM
[18] = second compound 0.316 µM, first compound 10 µM
[19] = second compound 1 µM, first compound 0.0316 µM
[20] = second compound 1 µM, first compound 0.1 µM
[21] = second compound 1 µM, first compound 0.316 µM
[22] = second compound 1 µM, first compound 1 µM
[23] = second compound 1 µM, first compound 3.16 µM
[24] = second compound 1 µM, first compound 10 µM
[25] = second compound 3.16 µM, first compound 0.0316 µM
[26] = second compound 3.16 µM, first compound 0.1 µM
[27] = second compound 3.16 µM, first compound 0.316 µM
[28] = second compound 3.16 µM, first compound 1 µM
[29] = second compound 3.16 µM, first compound 3.16 µM
[30] = second compound 3.16 µM, first compound 10 µM
[31] = second compound 10 µM, first compound 0.0316 µM
[32] = second compound 10 µM, first compound 0.1 µM
[33] = second compound 10 µM, first compound 0.316 µM
[34] = second compound 10 µM, first compound 1 µM
[35] = second compound 10 µM, first compound 3.16 µM
[36] = second compound 10 µM, first compound 10 µM
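Also: spheroids exposed to agents for seven days before readout.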
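For viability, T/C in this document: 100% = DMSO vehicle control viability.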

For `C#Cc1c(F)ccc2cc(O)cc(-c3ncc4c(N5CC6CCC(C5)N6)nc(OCC56CCCN5CC(F)C6)nc4c3F)c12` (stereo unspecified) + CN1CCN(c2cc(C(=O)Nc3cc4cc(-c5cnn(C)c5)ccc4cn3)ccn2)CC1, the IC50 (second compound 0.0316 µM) was > 10000 nM, the IC50 (second compound 0.1 µM) was > 10000 nM and the IC50 (second compound 0.316 µM) was < 31.6 nM. For the same compound, the IC50 (second compound 1 µM) was < 31.6 nM, the IC50 (second compound 3.16 µM) was < 31.6 nM and the IC50 (second compound 10 µM) was < 31.6 nM. The viability, T/C [1] was 80.5%, the viability, T/C [2] was 100% and the viability, T/C [3] was 88.8%. The viability, T/C [4] was 92.9%, the viability, T/C [5] was 84.8% and the viability, T/C [6] was 96%. The viability, T/C [7] was 56.6%, the viability, T/C [8] was 61.1% and the viability, T/C [9] was 64.8%. For the same compound, the viability, T/C [10] was 63.3%, the viability, T/C [11] was 57.1% and the viability, T/C [12] was 44.9%. For the same compound, the viability, T/C [13] was 32.3%, the viability, T/C [14] was 33.5% and the viability, T/C [15] was 34.9%. The viability, T/C [16] was 42.4%, the viability, T/C [17] was 37.6% and the viability, T/C [18] was 29.9%. The viability, T/C [19] was 7.93%, the viability, T/C [20] was 5.94% and the viability, T/C [21] was 7.93%. The viability, T/C [22] was 8.03%, the viability, T/C [23] was 5.77% and the viability, T/C [24] was 5.01%. The viability, T/C [25] was 9.44%, the viability, T/C [26] was 7.11% and the viability, T/C [27] was 5.82%. The viability, T/C [28] was 5.27%, the viability, T/C [29] was 5.66% and the viability, T/C [30] was 7.7%. The viability, T/C [31] was 5.72%, the viability, T/C [32] was 3.17% and the viability, T/C [33] was 2.28%. It also gave a viability, T/C [34] of 4.25%, a viability, T/C [35] of 5.23% and a viability, T/C [36] of 1%.

In the case of `C=C(F)C(=O)N1CCN(c2nc(OCC3CCCN3C)nc3c2CCN(c2cccc4cccc(Cl)c24)C3)CC1CC#N` (stereo unspecified) + CN1CCN(c2cc(C(=O)Nc3cc4cc(-c5cnn(C)c5)ccc4cn3)ccn2)CC1, the IC50 (second compound 0.0316 µM) is reported as 7260 nM, the IC50 (second compound 0.1 µM) is reported as 4560 nM and the IC50 (second compound 0.316 µM) is reported as < 31.6 nM. For the same compound, the IC50 (second compound 1 µM) was < 31.6 nM, the IC50 (second compound 3.16 µM) was < 31.6 nM and the IC50 (second compound 10 µM) was < 31.6 nM. The viability, T/C [1] was 102%, the viability, T/C [2] was 80.5% and the viability, T/C [3] was 98.3%. It also gave a viability, T/C [4] of 108%, a viability, T/C [5] of 113% and a viability, T/C [6] of 30.6%. The viability, T/C [7] was 64.3%, the viability, T/C [8] was 67.4% and the viability, T/C [9] was 64.1%. The viability, T/C [10] was 62.7%, the viability, T/C [11] was 87.9% and the viability, T/C [12] was 8.57%. The viability, T/C [13] was 35%, the viability, T/C [14] was 37.6% and the viability, T/C [15] was 34.7%. The viability, T/C [16] was 32.2%, the viability, T/C [17] was 39.1% and the viability, T/C [18] was 2.52%. The viability, T/C [19] was 7.05%, the viability, T/C [20] was 4.72% and the viability, T/C [21] was 5.61%. It also gave a viability, T/C [22] of 5%, a viability, T/C [23] of 5.11% and a viability, T/C [24] of 1.51%. The viability, T/C [25] was 6.63%, the viability, T/C [26] was 4.67% and the viability, T/C [27] was 7.01%. It also gave a viability, T/C [28] of 6.75%, a viability, T/C [29] of 3.34% and a viability, T/C [30] of 0.55%. The viability, T/C [31] was 1.82%, the viability, T/C [32] was 2.41% and the viability, T/C [33] was 3.57%. The viability, T/C [34] was 3.3%, the viability, T/C [35] was 0.98% and the viability, T/C [36] was 1.32%.

For `CC(CO)NC(=O)c1cc(-c2ccc(Cl)cc2)nn(-c2cnn(C)c2)c1=O` (stereo unspecified) + CN1CCN(c2cc(C(=O)Nc3cc4cc(-c5cnn(C)c5)ccc4cn3)ccn2)CC1, the IC50 (second compound 0.0316 µM) was > 10000 nM, the IC50 (second compound 0.1 µM) was > 10000 nM and the IC50 (second compound 0.316 µM) was > 10000 nM. The IC50 (second compound 1 µM) was < 31.6 nM, the IC50 (second compound 3.16 µM) was < 31.6 nM and the IC50 (second compound 10 µM) was < 31.6 nM. The viability, T/C [1] was 141%, the viability, T/C [2] was 195% and the viability, T/C [3] was 196%. For the same compound, the viability, T/C [4] was 216%, the viability, T/C [5] was 205% and the viability, T/C [6] was 173%. It also gave a viability, T/C [7] of 113%, a viability, T/C [8] of 142% and a viability, T/C [9] of 151%. It also gave a viability, T/C [10] of 152%, a viability, T/C [11] of 152% and a viability, T/C [12] of 148%. For the same compound, the viability, T/C [13] was 62.6%, the viability, T/C [14] was 63.5% and the viability, T/C [15] was 68.9%. For the same compound, the viability, T/C [16] was 77.1%, the viability, T/C [17] was 73% and the viability, T/C [18] was 76.2%. The viability, T/C [19] was 8.6%, the viability, T/C [20] was 5.35% and the viability, T/C [21] was 7.74%. It also gave a viability, T/C [22] of 6.71%, a viability, T/C [23] of 4.91% and a viability, T/C [24] of 5.72%. It also gave a viability, T/C [25] of 7.85%, a viability, T/C [26] of 5.72% and a viability, T/C [27] of 7.76%. For the same compound, the viability, T/C [28] was 7.17%, the viability, T/C [29] was 7.12% and the viability, T/C [30] was 7.82%. The viability, T/C [31] was 4.35%, the viability, T/C [32] was 2.99% and the viability, T/C [33] was 3.66%. It also gave a viability, T/C [34] of 2.79%, a viability, T/C [35] of 4.67% and a viability, T/C [36] of 2.07%.
